Test results: US20120029187A1, “HALOALKYLSULFONANILIDE DERIVATIVE” (Nissan Chemical Industries, Ltd., priority 2009, published 2012)

Columns and labels:
Assay type in all cases: in vivo
[1] = tested on: common lambsquater; experiment: Test Example 3: herbicidal effects in soil treatment; details: dose 6.3 g/a
Procedure, shortened: (§1)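 Seeds were sown in sterilized diluvial soil and covered with about 1.5 cm of soil. Compounds, formulated as emulsifiable concentrates and diluted with water, were sprayed evenly over the soil surface at set doses in g/a. Herbicidal effect was scored on a rating scale three weeks later.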

[2] = tested on: water foxtail; experiment: as above; details: dose 6.3 g/a
Procedure, shortened: as §1

[3] = tested on: barnyardgrass; experiment: as above; details: dose 6.3 g/a
Procedure, shortened: as §1

[4] = tested on: posumbu knotweed; experiment: as above; details: dose 6.3 g/a
Procedure, shortened: as §1

[5] = tested on: common chickweed; experiment: as above; details: dose 6.3 g/a
Procedure, shortened: as §1

[6] = tested on: Italian ryegrass; experiment: as above; details: dose 6.3 g/a
Procedure, shortened: as §1

[7] = tested on: wild oat; experiment: as above; details: dose 6.3 g/a
Procedure, shortened: as §1

[8] = tested on: large crabgrass; experiment: as above; details: dose 6.3 g/a
Procedure, shortened: as §1

[9] = tested on: common ragweed; experiment: as above; details: dose 6.3 g/a
Procedure, shortened: as §1

[10] = tested on: velvetleaf; experiment: as above; details: dose 6.3 g/a
Procedure, shortened: as §1

[11] = tested on: giant foxtail; experiment: as above; details: dose 6.3 g/a
Procedure, shortened: as §1

[12] = tested on: common lambsquater; experiment: Test Example 4: herbicidal effect in foliage treatment; details: dose 6.3 g/a, three weeks after application
Procedure, shortened: (§2)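 Foliar spray, post-emergence: 14-day-old greenhouse plants (25–30° C, diluvial soil) treated with water-diluted EC at set g/a doses; visual herbicidal score at 3 wk post-application.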

[13] = tested on: barnyardgrass; experiment: as above; details: dose 6.3 g/a, three weeks after application
Procedure, shortened: as §2

[14] = tested on: wild oat; experiment: as above; details: dose 6.3 g/a, three weeks after application
Procedure, shortened: as §2

[15] = tested on: large crabgrass; experiment: as above; details: dose 6.3 g/a, three weeks after application
Procedure, shortened: as §2

[16] = tested on: common ragweed; experiment: as above; details: dose 6.3 g/a, three weeks after application
Procedure, shortened: as §2

[17] = tested on: velvetleaf; experiment: as above; details: dose 6.3 g/a, three weeks after application
Procedure, shortened: as §2

[18] = tested on: barnyardgrass; experiment: Comparative Example 2: herbicidal effects on barnyardgrass during the vegetation period under submerged conditions; details: applied to water surface at the 2- or 2.5-leaf stage, three weeks after application
Method: Comparative Example 2 Test on the Herbicidal Effects on Barnyardgrass During the Vegetation Period Under Submerged Conditions Alluvial soil was put in 1/30000-are styrol cups and admixed with water so that it was submerged at a depth of 4 cm. In each cup, seeds of barnyardgrass were sown, and the cups were placed in a greenhouse at 25 to 30° C. to grow the plants. When the barnyardgrass reached the 2- or 2.5-leaf stage, emulsifiable concentrates containing compounds of the present invention and the comparative compounds formulated in accordance with Formulation Example 2 were applied to the water surfaces at predetermined doses after diluted with water. Three weeks after the application, the herbicidal effects were determined on the same evaluation scale as in Test Example 1. The symbol A in the table is the same as defined above.

[19] = tested on: barnyardgrass; experiment: Test Example 2: herbicidal effects during the vegetation period under submerged conditions; details: treatment during the vegetation period under submerged conditions; dose 2.52 g/a
Procedure, shortened: (§3)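 Barnyardgrass, bulrush and ducksalad were co-sown in alluvial soil flooded to 4 cm and grown in a greenhouse at 25 to 30° C. At the 1- or 2-leaf stage, water-diluted emulsifiable concentrates went onto the water surface at set doses (g/a). Herbicidal effect was scored three weeks later on a graded scale.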

[20] = tested on: bulrush; experiment: as above; details: treatment during the vegetation period under submerged conditions; dose 2.52 g/a
Procedure, shortened: as §3

[21] = tested on: ducksalad; experiment: as above; details: treatment during the vegetation period under submerged conditions; dose 2.52 g/a
Procedure, shortened: as §3

[22] = tested on: transplanted rice; experiment: Test Example 1: preemergence treatment under submerged conditions, effect on crop; details: dose 2.52 g/a
Procedure, shortened: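 Flooded-paddy preemergence assay; EC diluted with water, surface-applied at weed seeding; doses g/a; rice transplanted at 2.5 leaves; 0–5 mortality score after 3 weeks.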

CC(C)COC(=O)N(c1ccccc1CN1COCCC1=O)S(=O)(=O)C(F)(F)F [II-3]
L: common lambsquater, herbicidal effect (evaluation scale 0-5) [1]: 1 (mortality of at least 5% and less than 20%)
G: water foxtail, herbicidal effect (evaluation scale 0-5) [2]: 5 (mortality of 90% or above (nearly complete death))
A: barnyardgrass, herbicidal effect (evaluation scale 0-5) [3]: 5 (mortality of 90% or above (nearly complete death))
M: posumbu knotweed, herbicidal effect (evaluation scale 0-5) [4]: 1 (mortality of at least 5% and less than 20%)
N: common chickweed, herbicidal effect (evaluation scale 0-5) [5]: 3 (mortality of at least 40% and less than 70%)
H: Italian ryegrass, herbicidal effect (evaluation scale 0-5) [6]: 4 (mortality of at least 70% and less than 90%)
F: wild oat, herbicidal effect (evaluation scale 0-5) [7]: 0 (mortality of less than 5% (almost ineffective))
D: large crabgrass, herbicidal effect (evaluation scale 0-5) [8]: 5 (mortality of 90% or above (nearly complete death))
J: common ragweed, herbicidal effect (evaluation scale 0-5) [9]: 3 (mortality of at least 40% and less than 70%)
I: velvetleaf, herbicidal effect (evaluation scale 0-5) [10]: 4 (mortality of at least 70% and less than 90%)
E: giant foxtail, herbicidal effect (evaluation scale 0-5) [11]: 3 (mortality of at least 40% and less than 70%)
L: common lambsquater, herbicidal effect [12]: 4 (mortality of at least 70% and less than 90%)
A: barnyardgrass, herbicidal effect [13]: 5 (mortality of 90% or above (nearly complete death))
F: wild oat, herbicidal effect [14]: 0 (mortality of less than 5% (almost ineffective))
D: large crabgrass, herbicidal effect [15]: 5 (mortality of 90% or above (nearly complete death))
J: common ragweed, herbicidal effect [16]: 2 (mortality of at least 20% and less than 40%)
I: velvetleaf, herbicidal effect [17]: 5 (mortality of 90% or above (nearly complete death))
herbicidal effect, A (barnyardgrass) ([18]; dose 0.16 g/a): 0 (mortality of less than 5% (almost ineffective))
herbicidal effect, A (barnyardgrass) ([18]; dose 0.64 g/a): 3 (mortality of at least 40% and less than 70%)
herbicidal effect, A (barnyardgrass) ([18]; dose 2.52 g/a): 5 (mortality of 90% or above (nearly complete death))
A: barnyardgrass, herbicidal effect (evaluation scale 0-5) [19]: 5 (mortality of 90% or above (nearly complete death))
B: bulrush, herbicidal effect (evaluation scale 0-5) [20]: 5 (mortality of 90% or above (nearly complete death))
C: ducksalad, herbicidal effect (evaluation scale 0-5) [21]: 4 (mortality of at least 70% and less than 90%)
a: transplanted rice, effect on crop (evaluation scale 0-5) [22]: 0 (mortality of less than 5% (almost ineffective))
